Source: ChEMBL document CHEMBL1201862, “PubChem BioAssay data set” (2004)
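Following 48 hours of exposure in 96-well plates, responses at five concentrations were used to interpolate endpoints linearly. Abbreviation: GI50, concentration required for 50% inhibition of growth.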 The source made the active and inactive calls. Rule as the data show it: active = GI50 up to about 1.1 µM and inactive = higher.

How the values were obtained:
Test in all cases: growth of human tumour cells (NCI), 48 h
SN12C = tested on: SN12C
MDA-MB-435 = tested on: MDA-MB-435
CAKI-1 = tested on: CAKI-1
MDA-N = tested on: MDA-N
UACC-62 = tested on: UACC-62
OVCAR-3 = tested on: OVCAR-3
PC-3 = tested on: PC-3
RPMI-8226 = tested on: RPMI-8226
TK-10 = tested on: TK-10
SR = tested on: SR
SNB-19 = tested on: SNB-19
ACHN = tested on: ACHN
DU-145 = tested on: DU-145
IGROV-1 = tested on: IGROV-1
NCI-H522 = tested on: NCI-H522
SW-620 = tested on: SW-620
SF-295 = tested on: SF-295
SNB-75 = tested on: SNB-75
HCT-15 = tested on: HCT-15
HOP-92 = tested on: HOP-92

| SMILES | GI50 (SN12C) | GI50 (MDA-MB-435) | GI50 (CAKI-1) | GI50 (MDA-N) | GI50 (UACC-62) | GI50 (OVCAR-3) | GI50 (PC-3) | GI50 (RPMI-8226) | GI50 (TK-10) | GI50 (SR) | GI50 (SNB-19) | GI50 (ACHN) | GI50 (DU-145) | GI50 (IGROV-1) | GI50 (NCI-H522) | GI50 (SW-620) | GI50 (SF-295) | GI50 (SNB-75) | GI50 (HCT-15) [µM] | GI50 (HOP-92) |
| --- | --- | --- | --- | --- | --- | --- | --- | --- | --- | --- | --- | --- | --- | --- | --- | --- | --- | --- | --- | --- |
| NC(=O)c1nnc2cc(F)c(F)cc2c1N | 84.9 µM (inactive) | 97.9 µM (inactive) | 61.2 µM (inactive) | > 100 µM (inactive) | 31.3 µM (inactive) | > 100 µM (inactive) | 95.1 µM (inactive) | > 100 µM (inactive) | 35.2 µM (inactive) | > 100 µM (inactive) | 30.8 µM (inactive) | 52.1 µM (inactive) | 74.3 µM (inactive) | 47.5 µM (inactive) | 18.8 µM (inactive) | > 100 µM (inactive) | 27.3 µM (inactive) | 16.7 µM (inactive) | > 100 |  |
| N#Cc1sc2nc3ccccc3n2c1N |  | > 100 µM (inactive) | 37.2 µM (inactive) | > 100 µM (inactive) | 62.4 µM (inactive) | 68.7 µM (inactive) | 73.6 µM (inactive) | 84.3 µM (inactive) | 14.9 µM (inactive) |  | > 100 µM (inactive) | 92.3 µM (inactive) | 94.8 µM (inactive) | 58.7 µM (inactive) | > 100 µM (inactive) | 92.5 µM (inactive) | > 100 µM (inactive) | 29.7 µM (inactive) | 65.5 | > 100 µM (inactive) |
| COc1cc(CNC(=O)[C@H](Cc2ccc(O)cn2)NC(C)=O)cc(OC)c1 | > 100 µM (inactive) | > 100 µM (inactive) | > 100 µM (inactive) | > 100 µM (inactive) | 80.9 µM (inactive) | 50.6 µM (inactive) | 99.3 µM (inactive) | 29.5 µM (inactive) | > 100 µM (inactive) |  | > 100 µM (inactive) | > 100 µM (inactive) | > 100 µM (inactive) | 36.3 µM (inactive) | > 100 µM (inactive) | > 100 µM (inactive) | > 100 µM (inactive) |  | > 100 | 13.2 µM (inactive) |
| COc1ccccc1C(C1=C(O)COC1=O)c1cc2c(cc1OC(C)=O)OCO2 (stereo not given) | > 100 µM (inactive) | > 100 µM (inactive) | > 100 µM (inactive) | > 100 µM (inactive) | > 100 µM (inactive) | > 100 µM (inactive) | > 100 µM (inactive) | > 100 µM (inactive) | > 100 µM (inactive) | > 100 µM (inactive) | > 100 µM (inactive) | > 100 µM (inactive) | > 100 µM (inactive) | > 100 µM (inactive) |  | > 100 µM (inactive) | > 100 µM (inactive) | > 100 µM (inactive) | > 100 |  |
| COC(=O)[C@]1(c2cc3ccccc3[nH]2)CC2CN(C(=O)OCc3ccccc3)C1C=C2OC (stereo not given in full) | 36.1 µM (inactive) | 20.7 µM (inactive) | 28.5 µM (inactive) | 32.3 µM (inactive) | 16.8 µM (inactive) | 24 µM (inactive) | 26.7 µM (inactive) | 26.5 µM (inactive) | 48.1 µM (inactive) |  | 42.1 µM (inactive) | 25.8 µM (inactive) | 35.5 µM (inactive) | 42.7 µM (inactive) | 27.2 µM (inactive) | 41.5 µM (inactive) | 27.2 µM (inactive) | 23 µM (inactive) | 34.8 | 32.5 µM (inactive) |
| O=C(NNC(=O)c1ccccc1Cl)c1ccccc1O | > 100 µM (inactive) | 67 µM (inactive) | 41.3 µM (inactive) | > 100 µM (inactive) | 35.7 µM (inactive) | 25.2 µM (inactive) | 40.4 µM (inactive) | > 100 µM (inactive) | > 100 µM (inactive) | 29.9 µM (inactive) | > 100 µM (inactive) |  | > 100 µM (inactive) | 3.84 µM (inactive) | 12.2 µM (inactive) | 71.6 µM (inactive) | 32.7 µM (inactive) | 20.5 µM (inactive) | 21.7 |  |
